Numbered stars: 1 amine (or outer) side, 2 acyl side, 3 side chain; on linkers, the order of the positions; unused ones are H or OH. Square brackets hold non-standard residues; d marks the D form. Peptide text beside a SMILES is read from it. * marks the point of attachment. Dolaproine = CO[C@@H]([C@@H]1CCCN1)[C@@H](C)C(=O)O; Hexanoyl(6-maleimido) = O=C1C=CC(=O)N1CCCCCC(=O)*; Dil = CC[C@H](C)[C@H](NC)[C@@H](CC(=O)O)OC; PABC = O=C(OCc1ccc(N[*:1])cc1)[*:2]; X1 = C[C@@H](N*)[C@@H](O)c1ccccc1; Cit = NC(=O)NCCC[C@H](N)C(=O)O; NMeV = CN[C@H](C(=O)O)C(C)C
Assays:
MIA PaCa2 cells [1] = experiment: MTT assay, MIA PaCa2 cells; format: cell-based, human
Excerpt: (§1) Cell lines and culture: Human pancreatic cancer cell line MIA PaCa2 cells and primary umbilical vein endothelial cells (HUVEC) were purchased from American Type Culture Collection (ATCC). Human pancreatic cancer cell line PANC1 cells were kindly provided by Dr. Zhengrong Cui (College of Pharmacy, The University of Texas at Austin). Mouse mT4-2D pancreatic cancer cell line, which is derived from a Kras^+/LSL-G12DTp53^+/LSL-R172HPdx1-Cre transgenic model of pancreatic cancer, was kindly provided by Dr. Kyaw Aung (Livestrong Cancer Institutes, Dell Medical School, The University of Texas at Austin). MIA PaCa2 cells, PANC1, and mT4-2D cells were maintained in Dulbecco's […] with high glucose (Corning). Cell culture medium was supplemented with 10% fetal bovine serum (Gibco) and 100 U/mL penicillin-streptomycin (Gibco). HUVEC cells were maintained according to protocol provided by ATCC. All cells were maintained at 37° C. in a humidified atmosphere with 5% carbon dioxide.
(§2) MTT Assay: Cells were seeded in 96 well plates at a density of 5,000 cells/well. Cells were incubated overnight to allow attachment to the bottom of the plates. […] Untreated cells were used as control. After the treatments, 10 μL of MTT (3-(4,5-Dimethylthiazol-2-yl)-2,5-Diphenyltetrazolium Bromide, 5 mg/mL) was added to each well and incubated for an additional 4 hours. Then, the medium was replaced with 150 μL dimethyl sulfoxide (DMSO). After the formazan crystals were completely dissolved, the absorbance at 570 nm was read by a plate reader (Infinite®200 Pro, Tecan). Cell survival rate was calculated as follows: […]
(§3) The IC50 (half maximal inhibitory concentration) was calculated using GraphPad Prism 8.

PANC1 cells [2] = experiment: MTT assay, PANC1 cells; format: cell-based, human
Excerpt: as §1, §2, §3

HUVEC cells = experiment: MTT assay, HUVEC cells; format: cell-based, human
Excerpt: as §1
MTT Assay: Cells were seeded in 96 well plates at a density of 5,000 cells/well. […] After the formazan crystals were completely dissolved, the absorbance at 570 nm was read by a plate reader (Infinite®200 Pro, Tecan). Cell survival rate was calculated as follows: […]
as §3

[3] = Plasma pharmacokinetics of free and total MMAE in MIA PaCa2 tumor-bearing mice; format: in vivo; conditions: for plasma concentration of free MMAE: 10 min after single intravenous dose, 0.5 mg/kg MMAE equivalent
Description: (§4) Quantification of MMAE by LC-MS: An Agilent 1260 Infinity liquid chromatography system (G1312B) with an Agilent 6530 Q-TOF mass spectrometer was used to detect the drug MMAE. 5 μL of sample was injected into an Eclipse Plus C18 column (50×2.1 mm, 5 μm) followed by a gradient elution at 0.7 mL/min. […] Electrospray ionization source was used in positive mode. To derive standard curves for MMAE, drug standards were spiked into blank matrix along with internal standard. Samples were then prepared for LC-MS analysis. MMAE was monitored at m/z 740 [M+Na]+, 719 [M+H]+, 371 [M+Na+1-1]^2+ and 360 [M+2H]^2±. Deuterated (D8) MMAE as internal standard was monitored at m/z 748 [M+Na]+, 727 [M+H]+, 375 [M+Na+1-1]^2+ and 364 [M+2H]^2±. The peak area of each drug standard was derived by the peak area of internal standard. The peak area ratios were then plotted as a function of standard concentrations and data points were fitted using linear regression (GraphPad). MMAE concentrations in test samples were quantified using the peak area ratio between MMAE and D8-MMAE and calculated using the standard curves.
(§5) Pharmacokinetics and tissue distribution: Thirty-six mice bearing MIA PaCa2 tumors were equally divided into 4 groups. […] All treatment arms were dosed with an equivalent amount of MMAE at 0.5 mg/kg. At 10 min, 24 h, 48 h, 72 h, 96 h and 168 h post-administration, blood samples were collected from 3 mice in each group through tail vein. Plasma was separated immediately using BD microtainer. At 24 h, 72 h and 168 h after administration, 3 mice from each group were euthanized to collect liver, kidney, and tumor tissue samples. Plasma and tissue samples were stored at −80° C. until further analysis.
(§6) To determine the amount of free MMAE in plasma samples, 1 μL D8-MMAE (250 ng/mL) internal control was added into 10 μL plasma samples and then mixed with 89 μL acetonitrile. The mixture was thoroughly mixed and centrifuged (12,000 rpm, 20 min, 4° C.). The supernatant was collected for LC-MS quantification. To determine free MMAE in mouse tissues, weighed tissues were homogenized with ice-cold PBS containing protease inhibitors (cOmplete™ ULTRA Tablets, Roche) using a tissue homogenizer (Fisher Scientific) to a final concentration of 600 mg/mL. The homogenized suspension was centrifuged at 12,000 rpm for 20 min at 4° C. As an internal control, 1 μL D8-MMAE (250 ng/mL) was added into 20 μL of the supernatant and then mixed with 79 μL acetonitrile. After the mixture was mixed and centrifuged, the supernatant was collected for LC-MS for quantification.
(§7) Briefly, freshly prepared papain (Sigma-Aldrich) was added to plasma and tissue samples at a final concentration of 2 mg/mL, and the mixtures were incubated at 40° C. for 16 hours. The resulting samples were treated as method described above for LC-MS quantification.

[4] = Maximum tolerated dose in healthy athymic NCr nude mice; format: in vivo
Description: Maximum tolerated dose: All animal experiments were approved and performed under the guidelines by the Institutional Animal Care and Use Committee at. The University of Texas at Austin. […] Mice were injected every 4 days for a total of 4 repeated doses. Body weight and general appearance of each mice were monitored for 10 days after the last dose of injection.

[5] = Body weight change at 0.9 mg/kg MMAE equivalent dose; format: in vivo, mice; conditions: multiple dosing
Description: FIGS. 15A-15E: Body weight change of mice when dosed with 0.9 mg/kg MMAE equivalent dose. […] Body weights of mice during and after treatments were monitored. (n=5). Data shown as mean±standard deviation. Mice in MMAE group (B) were dosed with 0.9 mg/kg MMAE at Day 0 and 4.

MIA PaCa2 xenografts = experiment: In vivo antitumor efficacy, MIA PaCa2 xenografts; set-up: species or system mice; conditions: every 4 days, 4 doses; for tumor growth: 0.5 mg/kg MMAE equivalent
Description: Tumor-bearing mouse models: Eight to ten week old athymic female NCr nude mice and C57BL/6 mice (Taconic) were used to establish xenograft mouse model and syngeneic mouse model, respectively. […] The cell suspension was then gently mixed with equal volume of Matrigel® (Corning). Subsequently, 100 μL of each mixed cell suspension (MIA PaCa2 and mT4-2D) was subcutaneously inoculated into both flanks of NCr nude mice and C57BL/6 mice, respectively. After the tumors were palpable, tumor volumes were measured two times a week. The tumor volume was calculated as (1/2×length×[…]).
In vivo antitumor efficacy: Mice bearing MIA PaCa2 xenografts and syngeneic mT4-2D C57BL/6 mice were randomized when the tumor sizes were ˜150 mm^3, respectively. […] Tumor sizes were measured by a digital caliper twice a week starting from Day 0. Mice were euthanized when either tumor volume exceeded 1500 mm^3.
Statistical analysis: All of the experiments were repeated at least three times. Statistical significance was calculated using two-way ANOVA followed by Tukey's test. Survival curve was analyzed by log-rank test using GraphPad Prism 8 software.

MIA PaCa2 cells [6] = experiment: Uptake of fluorescein-albumin conjugate with macropinocytosis inhibitor, MIA PaCa2 cells; format: cell-based, human; conditions: EIPA 50 μM and 75 μM, flow cytometer
Description: (§8) FIGS. 10A-10B: (A) MIA PaCa2 cells and (B) PANC1 cells were seeded in 12-well plates at 5×10^5 cells/well and allowed to attach overnight. Cells were first starved in serum free medium for 2 hours followed by treatment with macropinocytosis inhibitor (EIPA: 5-(N-Ethyl-N-isopropyl)amiloride) for 30 min. […] Then cells were detached and analyzed by flow cytometer (Accuri). […] (*p<0.05, **p<0.01)

PANC1 cells [7] = experiment: Uptake of fluorescein-albumin conjugate with macropinocytosis inhibitor, PANC1 cells; format: cell-based, human; conditions: EIPA 50 μM and 75 μM, flow cytometer
Description: as §8

soft-tissue sarcoma = conditions: minimal cardiac toxicity; cited from earlier work
[8] = Tissue distribution of free and total MMAE in MIA PaCa2 tumor-bearing mice; format: in vivo; conditions: 24 hours after single dose
Description: as §4, §5, §6, §7

[9] = total MMAE in plasma, 0.5 mg/kg i.v.

Compound: CC[C@H](C)[C@@H]([C@@H](CC(=O)N1CCC[C@H]1[C@H](OC)[C@@H](C)C(=O)N[C@H](C)[C@@H](O)c1ccccc1)OC)N(C)C(=O)[C@@H](NC(=O)[C@@H](NC)C(C)C)C(C)C [MMAE, monomethyl auristatin E] (H-[NMeV]V[Dil][Dolaproine]-X1)
- IC50 (MIA PaCa2 cells [1]; 24 hours): 0.54 nM
- IC50 (MIA PaCa2 cells [1]; 48 hours): 0.46 nM
- IC50 (MIA PaCa2 cells [1]; 72 hours): 0.5 nM
- IC50 (PANC1 cells [2]; 24 hours): 0.52 nM
- IC50 (PANC1 cells [2]; 48 hours): 0.21 nM
- IC50 (PANC1 cells [2]; 72 hours): 0.21 nM
- IC50 (HUVEC cells; 24 hours): 0.067 nM
- IC50 (HUVEC cells; 48 hours): 0.012 nM
- plasma concentration of free MMAE [3]: 86.03 ± 17.78 ng/mL
- maximum tolerated dose ([4]; MMAE equivalent dose, every 4 days, 4 doses, body weight change within 20%): approximately 0.5 mg/kg
- loss of body weight [5]: > 20%
- tumor growth (MIA PaCa2 xenografts): slowed down tumor growth

Compound: CCN(c1nc(N)c(C(=O)N=C(N)N)nc1Cl)C(C)C [EIPA, 5-(N-Ethyl-N-isopropyl)amiloride]
- inhibition of uptake of fluorescein-albumin conjugate (ALDC1) (MIA PaCa2 cells [6]): significantly inhibit
- inhibition of uptake of fluorescein-albumin conjugate (ALDC1) (PANC1 cells [7]): significantly inhibit

Compound: COc1cccc2c1C(=O)c1c(O)c3c(c(O)c1C2=O)C[C@@](O)(/C(CO)=N/NC(=O)CCCCCN1C(=O)C=CC1=O)C[C@@H]3O[C@H]1C[C@H](N)[C@H](O)[C@H](C)O1 [aldoxorubicin]
- safely administered dose compared to doxorubicin (soft-tissue sarcoma): 3.47 fold

Compound: CC[C@H](C)[C@@H]([C@@H](CC(=O)N1CCC[C@H]1[C@H](OC)[C@@H](C)C(=O)N[C@H](C)[C@@H](O)c1ccccc1)OC)N(C)C(=O)[C@@H](NC(=O)[C@H](C(C)C)N(C)C(=O)OCc1ccc(NC(=O)[C@H](CCCNC(N)=O)NC(=O)[C@@H](NC(=O)CCCCCN2C(=O)C=CC2=O)C(C)C)cc1)C(C)C [MMAE-MAL, mc-vc-pab-MMAE] ({Hexanoyl(6-maleimido)}-V[Cit][PABC][NMeV]V[Dil][Dolaproine]-X1)
- plasma concentration of free MMAE [3]: 669.67 ± 78.94 ng/mL
- premature release of MMAE in plasma compared to the ALDC1 group ([3]; free MMAE, 10 min after dosing, 0.5 mg/kg): 13 fold
- AUC 0-∞ [3, 9]: 141.1938 µg·h/mL
- AUMC 0-∞ [3, 9]: 2827552.1 ng/ml*h^2
- Cl [3, 9]: 3.54E−06 (mg/kg)/(ng/ml)/h
- MRT [3, 9]: 20.02 h
- T1/2 [3, 9]: 27.82 h
- AUC 0-t ([3]; total MMAE in plasma, time 0 to 168 hours, 0.5 mg/kg i.v.): 139.9281 µg·h/mL
- amount of free MMAE in tumor compared to the MMAE group [8]: about 2 fold
- accumulation of free MMAE in tumor ([8]; 0.5 mg/kg MMAE): 2.2 % ID/g
- total MMAE in liver ([8]; 0.5 mg/kg MMAE): 0.3 % ID/g
- total MMAE in tumor ([8]; 0.5 mg/kg MMAE): 3.3 % ID/g
- free MMAE in the liver and kidney ([8]; no statistical difference to MMAE group): low levels
- maximum tolerated dose compared with ALDC1 ([4]; percent weight loss from original weight): lower maximum tolerated dose
- loss of body weight [5]: ~20%
- tumor growth (MIA PaCa2 xenografts): significantly delayed
- median survival of tumor-bearing mice (MIA PaCa2 xenografts; 0.5 mg/kg equivalent to MMAE): 81 days
